In PubChem BioAssay (NCI):
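Each compound was tested at five concentrations against cells in 96-well plates for 48 hours. GI50 = concentration required for 50% inhibition of growth. At the TGI there is no net growth.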

Columns and labels:
Test in all cases: NCI-60 cell line screen, 48 h
SK-MEL-5 melanoma = tested on: SK-MEL-5 melanoma
MOLT-4 leukemia = tested on: MOLT-4 leukemia
HOP-62 NSCLC = tested on: HOP-62 NSCLC
SNB-75 CNS = tested on: SNB-75 CNS
LOX IMVI melanoma = tested on: LOX IMVI melanoma
SF-539 CNS = tested on: SF-539 CNS
NCI/ADR-RES ovarian = tested on: NCI/ADR-RES ovarian
A549 NSCLC = tested on: A549 NSCLC
UO-31 renal = tested on: UO-31 renal
EKVX NSCLC = tested on: EKVX NSCLC
PC-3 prostate = tested on: PC-3 prostate
NCI-H23 lung = tested on: NCI-H23 lung
HT29 colon = tested on: HT29 colon
A498 renal = tested on: A498 renal
SK-OV-3 ovarian = tested on: SK-OV-3 ovarian
HS 578T breast = tested on: HS 578T breast
MDA-MB-435 = tested on: MDA-MB-435
CAKI-1 renal = tested on: CAKI-1 renal
OVCAR-4 ovarian = tested on: OVCAR-4 ovarian
KM12 colon = tested on: KM12 colon
UACC-62 melanoma = tested on: UACC-62 melanoma
NCI-H226 lung = tested on: NCI-H226 lung
RXF 393 renal = tested on: RXF 393 renal
UACC-257 melanoma = tested on: UACC-257 melanoma
CCRF-CEM leukemia = tested on: CCRF-CEM leukemia
SNB-19 CNS = tested on: SNB-19 CNS
MALME-3M melanoma = tested on: MALME-3M melanoma
K-562 leukemia = tested on: K-562 leukemia

Which results are given for `COc1ccc(-n2nc(C(=O)c3ccccc3)c3nn4c(=O)cc(-c5ccccc5)nc4nc32)cc1`?
GI50 (SK-MEL-5 melanoma): 41.7 µM; TGI (SK-MEL-5 melanoma): > 100 µM; GI50 (MOLT-4 leukemia): 34.8 µM; TGI (MOLT-4 leukemia): > 100 µM; GI50 (HOP-62 NSCLC): 44.1 µM; TGI (HOP-62 NSCLC): > 100 µM; GI50 (SNB-75 CNS): 37.9 µM; TGI (SNB-75 CNS): > 100 µM; GI50 (LOX IMVI melanoma): 34.5 µM; TGI (LOX IMVI melanoma): > 100 µM; GI50 (SF-539 CNS): 41.8 µM; TGI (SF-539 CNS): > 100 µM; GI50 (NCI/ADR-RES ovarian): 34.5 µM; TGI (NCI/ADR-RES ovarian): > 100 µM; GI50 (A549 NSCLC): 39.2 µM; TGI (A549 NSCLC): > 100 µM; GI50 (UO-31 renal): 28.6 µM; TGI (UO-31 renal): > 100 µM; GI50 (EKVX NSCLC): 53.5 µM; TGI (EKVX NSCLC): > 100 µM; GI50 (PC-3 prostate): 50.5 µM; TGI (PC-3 prostate): > 100 µM; GI50 (NCI-H23 lung): 67.2 µM; TGI (NCI-H23 lung): > 100 µM; GI50 (HT29 colon): 32.2 µM; TGI (HT29 colon): > 100 µM; GI50 (A498 renal): 66.2 µM; TGI (A498 renal): > 100 µM; GI50 (SK-OV-3 ovarian): 74.2 µM; TGI (SK-OV-3 ovarian): > 100 µM; GI50 (HS 578T breast): 69.9 µM; TGI (HS 578T breast): > 100 µM; GI50 (MDA-MB-435): 51.9 µM; TGI (MDA-MB-435): > 100 µM; GI50 (CAKI-1 renal): > 100 µM; TGI (CAKI-1 renal): > 100 µM; GI50 (OVCAR-4 ovarian): 30.5 µM; TGI (OVCAR-4 ovarian): > 100 µM; GI50 (KM12 colon): 46.5 µM; TGI (KM12 colon): > 100 µM; GI50 (UACC-62 melanoma): 28.4 µM; TGI (UACC-62 melanoma): 97.6 µM; GI50 (NCI-H226 lung): 98.1 µM; TGI (NCI-H226 lung): > 100 µM; GI50 (RXF 393 renal): > 100 µM; TGI (RXF 393 renal): > 100 µM; GI50 (UACC-257 melanoma): 42.6 µM; TGI (UACC-257 melanoma): > 100 µM; GI50 (CCRF-CEM leukemia): 28.9 µM; TGI (CCRF-CEM leukemia): > 100 µM; GI50 (SNB-19 CNS): 69.1 µM; TGI (SNB-19 CNS): > 100 µM; GI50 (MALME-3M melanoma): 34.5 µM; TGI (MALME-3M melanoma): > 100 µM; GI50 (K-562 leukemia): 40.5 µM; TGI (K-562 leukemia): > 100 µM
